In PubChem BioAssay AID180 (DTP/NCI, 2004):
Where “and” joins values, the source holds several entries; their conditions need not be identical. Equal values may be shown once.

Test system: BDF1 mice, Adenocarcinoma 755 s.c., tumor weight T/C
Assay: NCI In Vivo Anticancer Drug Screen. Data for tumor model Adenocarcinoma 755 (subcutaneous) in B6D2F1 (BDF1) mice
Conditions: endpoint: mean tumor weight, higher = larger tumour
Procedure, shortened: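 Readout: T/C, i.e. treated-group measurement over vehicle-control measurement. Endpoint is survival or tumor size in tumor-bearing mice given compound.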

[1] = dose: 50.0 mg/kg/injection, schedule: Q01DX011 (ip), vehicle: saline
[2] = dose: 50.0 mg/kg/injection, schedule: Q01DX011 (ip), vehicle: carboxymethylcellulose (CMC)
[3] = dose: 100.0 mg/kg/injection, schedule: Q01DX011 (ip), vehicle: carboxymethylcellulose (CMC)
[4] = dose: 200.0 mg/kg/injection, schedule: Q01DX011 (ip), vehicle: carboxymethylcellulose (CMC)
[5] = dose: 15.0 mg/kg/injection, schedule: Q01DX011 (ip), vehicle: methylcellulose (MC)
[6] = dose: 31.0 mg/kg/injection, schedule: Q01DX011 (ip), vehicle: methylcellulose (MC)
[7] = dose: 62.0 mg/kg/injection, schedule: Q01DX011 (ip), vehicle: methylcellulose (MC)
[8] = dose: 125.0 mg/kg/injection, schedule: Q01DX011 (ip), vehicle: methylcellulose (MC)
[9] = dose: 125.0 mg/kg/injection, schedule: Q01DX011 (ip), vehicle: saline

## CC(C)Sc1nc(N)nc2nc[nH]c12
dose: 1.0 mg/kg/injection, schedule: Q01DX011 (ip), vehicle: saline
  T/C: 41 % of control
dose: 1.6 mg/kg/injection, schedule: Q01DX011 (ip), vehicle: methylcellulose (MC)
  T/C: 16 % of control
dose: 3.0 mg/kg/injection, schedule: Q01DX011 (ip), vehicle: saline
  T/C: 41 % of control
dose: 3.1 mg/kg/injection, schedule: Q01DX011 (ip), vehicle: methylcellulose (MC)
  T/C: 11 % of control
dose: 6.0 mg/kg/injection, schedule: Q01DX011 (ip), vehicle: saline
  T/C: 30 % of control
dose: 6.25 mg/kg/injection, schedule: Q01DX011 (ip), vehicle: methylcellulose (MC)
  T/C: 2 % of control
dose: 12.0 mg/kg/injection, schedule: Q01DX011 (ip), vehicle: saline
  T/C: 37 % of control
dose: 12.5 mg/kg/injection, schedule: Q01DX011 (ip), vehicle: methylcellulose (MC)
  T/C: 1 % of control
dose: 25.0 mg/kg/injection, schedule: Q01DX011 (ip), vehicle: saline
  T/C: 17 % of control
[1]
  T/C: 4 % of control
dose: 100.0 mg/kg/injection, schedule: Q01DX011 (ip), vehicle: saline
  T/C: 7 % of control
dose: 125.0 micrograms/kg/injection, schedule: Q01DX011 (ip), vehicle: saline
  T/C: 76 % of control
dose: 250.0 micrograms/kg/injection, schedule: Q01DX011 (ip), vehicle: saline
  T/C: 77 % of control
dose: 500.0 micrograms/kg/injection, schedule: Q01DX011 (ip), vehicle: saline
  T/C: 52 % of control
dose: 1000.0 micrograms/kg/injection, schedule: Q01DX011 (ip), vehicle: saline
  T/C: 80 % of control

## CCCCNc1nc(N)nc(Nc2ccc(Br)cc2)c1N=O
[2]
  T/C: 18 % of control
dose: 50.0 mg/kg/injection, schedule: Q01DX011 (ip), vehicle: methylcellulose (MC)
  T/C: 46 % of control
[3]
  T/C: 30 % of control
dose: 100.0 mg/kg/injection, schedule: Q01DX011 (ip), vehicle: methylcellulose (MC)
  T/C: 44 % of control
[4]
  T/C: 53 % of control
dose: 200.0 mg/kg/injection, schedule: Q01DX011 (ip), vehicle: methylcellulose (MC)
  T/C: 40 % of control
dose: 400.0 mg/kg/injection, schedule: Q01DX011 (ip), vehicle: methylcellulose (MC)
  T/C: 47 % of control
dose: 800.0 mg/kg/injection, schedule: Q01DX011 (ip), vehicle: carboxymethylcellulose (CMC)
  T/C: 23 % of control

## COc1cc(C(=O)O)nc(SC)n1
[5]
  T/C: 115 % of control
[6]
  T/C: 94 % of control
[7]
  T/C: 88 % of control
[8]
  T/C: 87 % of control

## CCOC(=O)C(N)Cc1ccc(N(CCCl)CCCl)cc1 (centres undefined)
dose: 0.5 mg/kg/injection, schedule: Q01DX011 (ip), vehicle: carboxymethylcellulose (CMC)
  T/C: 92 % of control
dose: 0.5 mg/kg/injection, schedule: Q01DX011 (ip), vehicle: saline
  T/C: 82 % of control
dose: 1.1 mg/kg/injection, schedule: Q01DX011 (ip), vehicle: carboxymethylcellulose (CMC)
  T/C: 77 % of control
dose: 1.1 mg/kg/injection, schedule: Q01DX011 (ip), vehicle: saline
  T/C: 40 % of control
dose: 2.2 mg/kg/injection, schedule: Q01DX011 (ip), vehicle: carboxymethylcellulose (CMC)
  T/C: 91 % of control
dose: 2.2 mg/kg/injection, schedule: Q01DX011 (ip), vehicle: saline
  T/C: 9 % of control
dose: 4.5 mg/kg/injection, schedule: Q01DX011 (ip), vehicle: carboxymethylcellulose (CMC)
  T/C: 78 % of control
dose: 4.5 mg/kg/injection, schedule: Q01DX011 (ip), vehicle: saline
  T/C: 1 % of control
dose: 9.0 mg/kg/injection, schedule: Q01DX011 (ip), vehicle: carboxymethylcellulose (CMC)
  T/C: 69 % of control

## CCCCN(C)N=Nc1ccc(CCC(=O)OCC)cc1
dose: 62.5 mg/kg/injection, schedule: Q01DX011 (ip), vehicle: saline
  T/C: 95 % of control
[9]
  T/C: 38 % of control
dose: 250.0 mg/kg/injection, schedule: Q01DX011 (ip), vehicle: saline
  T/C: 80 % of control

## Nc1nc(SCc2ccccc2)c2ncn(C3CCCC3)c2n1
dose: 4.6 mg/kg/injection, schedule: Q01DX011 (ip), vehicle: carboxymethylcellulose (CMC)
  T/C: 79 % of control
dose: 9.3 mg/kg/injection, schedule: Q01DX011 (ip), vehicle: carboxymethylcellulose (CMC)
  T/C: 70 % of control
dose: 18.7 mg/kg/injection, schedule: Q01DX011 (ip), vehicle: carboxymethylcellulose (CMC)
  T/C: 69 % of control
dose: 37.5 mg/kg/injection, schedule: Q01DX011 (ip), vehicle: carboxymethylcellulose (CMC)
  T/C: 24 % of control
dose: 75.0 mg/kg/injection, schedule: Q01DX011 (ip), vehicle: carboxymethylcellulose (CMC)
  T/C: 11 % of control
dose: 150.0 mg/kg/injection, schedule: Q01DX011 (ip), vehicle: carboxymethylcellulose (CMC)
  T/C: 2 % of control
dose: 300.0 mg/kg/injection, schedule: Q01DX011 (ip), vehicle: carboxymethylcellulose (CMC)
  T/C: 1 % of control
dose: 375.0 mg/kg/injection, schedule: Q01DX011 (ip), vehicle: carboxymethylcellulose (CMC)
  T/C: 33 % of control

## COc1cc2c3c(c4ccc(OC)c(OC)c4c2cc1OC)CN1CCC[C@@H]1C3
dose: 5.0 mg/kg/injection, schedule: Q02DX006 (ip), vehicle: water
  T/C: 65 % of control
dose: 10.0 mg/kg/injection, schedule: Q02DX006 (ip), vehicle: water
  T/C: 52 % of control
dose: 15.0 mg/kg/injection, schedule: Q02DX006 (ip), vehicle: water
  T/C: 33 % of control
dose: 20.0 mg/kg/injection, schedule: Q02DX006 (ip), vehicle: water
  T/C: 21 % of control

## CO[C@@H]([CH2][Hg][S]C#N)[C@@H]([CH2][Hg][S]C#N)OC
dose: 9.5 mg/kg/injection, schedule: Q01DX011 (ip), vehicle: carboxymethylcellulose (CMC)
  T/C: 56 % of control
dose: 18.75 mg/kg/injection, schedule: Q01DX011 (ip), vehicle: carboxymethylcellulose (CMC)
  T/C: 57 % of control

## S=c1nc[nH]c2c1ncn2C1CC1
dose: 31.0 mg/kg/injection, schedule: Q01DX011 (ip), vehicle: carboxymethylcellulose (CMC)
  T/C: 86 % of control
dose: 62.0 mg/kg/injection, schedule: Q01DX011 (ip), vehicle: carboxymethylcellulose (CMC)
  T/C: 89 % of control
dose: 125.0 mg/kg/injection, schedule: Q01DX011 (ip), vehicle: carboxymethylcellulose (CMC)
  T/C: 86 % of control
dose: 250.0 mg/kg/injection, schedule: Q01DX011 (ip), vehicle: carboxymethylcellulose (CMC)
  T/C: 33 % of control
dose: 500.0 mg/kg/injection, schedule: Q01DX011 (ip), vehicle: carboxymethylcellulose (CMC)
  T/C: 59 % of control

## Cn1cnc2c(ncn2C2CC(O)C(CO)O2)c1=O (centres undefined)
dose: 120.0 mg/kg/injection, schedule: Q01DX011 (ip), vehicle: saline
  T/C: 105 % of control
dose: 240.0 mg/kg/injection, schedule: Q01DX011 (ip), vehicle: saline
  T/C: 98 % of control

## O=C(CCBr)NCCCCNC(=O)CCBr
dose: 56.0 mg/kg/injection, schedule: Q01DX011 (ip), vehicle: methylcellulose (MC)
  T/C: 83 % of control
dose: 113.0 mg/kg/injection, schedule: Q01DX011 (ip), vehicle: methylcellulose (MC)
  T/C: 78 % of control

## CCOc1ccccc1Nc1cc(Cl)nc(N)n1
[5]
  T/C: 96 % of control
[6]
  T/C: 66 % of control
[7]
  T/C: 70 % of control
[8]
  T/C: 95 % of control
dose: 250.0 mg/kg/injection, schedule: Q01DX011 (ip), vehicle: methylcellulose (MC)
  T/C: 70 % of control

## CCOC(=O)C1=C(C)NC(C)=C(C(=O)OCC)C1C
dose: 31.2 mg/kg/injection, schedule: Q01DX011 (ip), vehicle: other
  T/C: 85 % of control
dose: 62.5 mg/kg/injection, schedule: Q01DX011 (ip), vehicle: other
  T/C: 77 % of control
dose: 125.0 mg/kg/injection, schedule: Q01DX011 (ip), vehicle: other
  T/C: 79 % of control and 81 % of control

## OCC1CCC(n2cnc3c(=S)nc[nH]c32)C1 (centres undefined)
[2]
  T/C: 89 % of control
[3]
  T/C: 88 % of control
[4]
  T/C: 48 % of control

## CCCCn1cnc2c(SC)ncnc21
dose: 5.0 mg/kg/injection, schedule: Q01DX011 (ip), vehicle: saline
  T/C: 89 % of control
dose: 7.5 mg/kg/injection, schedule: Q01DX011 (ip), vehicle: saline
  T/C: 119 % of control
dose: 10.0 mg/kg/injection, schedule: Q01DX011 (ip), vehicle: saline
  T/C: 65 % of control
dose: 20.0 mg/kg/injection, schedule: Q01DX011 (ip), vehicle: saline
  T/C: 20 % of control
dose: 30.0 mg/kg/injection, schedule: Q01DX011 (ip), vehicle: saline
  T/C: 26 % of control
dose: 40.0 mg/kg/injection, schedule: Q01DX011 (ip), vehicle: saline
  T/C: 14 % of control
[1]
  T/C: 10 % of control
dose: 53.0 mg/kg/injection, schedule: Q01DX011 (ip), vehicle: saline
  T/C: 5 % of control
dose: 84.0 mg/kg/injection, schedule: Q01DX011 (ip), vehicle: saline
  T/C: 5 % of control
[9]
  T/C: 4 % of control
dose: 187.0 mg/kg/injection, schedule: Q01DX011 (ip), vehicle: saline
  T/C: 1 % of control
